Measurements from US12691109B2, “Bifunctional aggregation-induced emission luminogen for monitoring and killing of multidrug-resistant bacteria” (The Hong Kong University of Science and Technology, priority 2018, dated 2026).

Tests used:
Experiment in all cases: Bacteria staining with TriPE-NT and PI, CLSM
Assay type in all cases: cell-based
Details in all cases: 10 min
K. pneumoniae = test system: K. pneumoniae
Experimental: (§1) FIG. 21B is a graph plotting stained percentages for E. coli, MDR E. coli, K. pneumoniae, MDR K. pneumoniae, S. epidermidis, MDR S. epidermidis, S. aureus, and MDR S. aureus.
(§2) FIG. 21C is a graph plotting percentage of dead bacteria stained by propidium iodine (PI) after the bacteria were incubated with 10 μM of TriPE-NT or PI for 10 min.
(§3) TriPE-NT: Ex=405 nm, Em=500-560 nm; PI: Ex=514, Em=600-700. The scale bar is equal to 5 μm.
(§4) To indicate the status of the bacteria after TriPE-NT treatment, the bacteria was incubated with commercial dead bacteria-staining fluorescent reagent propidium iodide (PI) and TriPE-NT at the same time. Thanks to the AIE characteristics and water solubility of TriPE-NT, there was almost no background fluorescence in the imaging field. E. coli and S. epidermidis, which emitted bright orange (TriPE-NT) or red (PI) fluorescence, are clearly visualized under confocal laser scanning microscope (CLSM) (FIG. 21A-C, 22-23). […] In comparison, relatively low percentage of Gram-negative bacteria were stained by TriPE-NT (e.g., 88.1±9.8% E. coli, 84.3±12.7% MDR E. coli, 47.9±7.7% K. pneumoniae and 35.8±4.9% MDR K. pneumoniae) (FIG. 21B, FIG. 22). […] By contrast, relatively low percentages of E. coli (22.1±12.2% E. coli) were co-stained by both TriPE-NT and PI (FIGS. 21A, C), which is also similar to other Gram-negative bacteria (15.3±3.7%, MDR E. coli, 8.8±3.2%, K. pneumoniae and 6.4±2.6% MDR K. pneumoniae) (FIGS. 21A & C, 22). The reason for this difference possibly is ascribed to the extra membrane of Gram-negative bacteria which is absent in Gram-positive bacteria. These observations also illustrated that both Gram-negative bacteria and Gram-positive bacteria are vulnerable to TriPE-NT treatment, the possible reason is that these bacteria with negatively charged membranes, could anchor, uptake, and aggregate the positively charged probe, which restricts the intramolecular motion of the probe and causes their fluorescence emission.

MDR E. coli = test system: MDR E. coli
Experimental: as §1, §2, §3, §4

MDR K. pneumoniae = test system: MDR K. pneumoniae
Experimental: as §1, §2, §3, §4

## COc1ccc(C(=Cc2ccc(-c3ccc4c5c(cccc35)C(=O)N(CCCCn3c[n+](Cc5ccc(F)cc5F)cn3)C4=O)cc2)c2ccc(OC)cc2)cc1 [TriPE-NT]
K. pneumoniae; 10 μM TriPE-NT and PI
  percentage of K. pneumoniae co-stained by TriPE-NT and PI (dead bacteria): 8.8±3.2%
K. pneumoniae; 10 μM
  percentage of K. pneumoniae stained by TriPE-NT: 47.9±7.7%
MDR E. coli; 10 μM TriPE-NT and PI
  percentage of MDR E. coli co-stained by TriPE-NT and PI (dead bacteria): 15.3±3.7%
MDR E. coli; 10 μM
  percentage of MDR E. coli stained by TriPE-NT: 84.3±12.7%
MDR K. pneumoniae; 10 μM TriPE-NT and PI
  percentage of MDR K. pneumoniae co-stained by TriPE-NT and PI (dead bacteria): 6.4±2.6%
MDR K. pneumoniae; 10 μM
  percentage of MDR K. pneumoniae stained by TriPE-NT: 35.8±4.9%
